Columns and labels:
[1] = target: T1, human NMDA receptor GluN1-GluN2B (Homo sapiens, UniProt Q05586+Q13224); experiment: cell-based; format: cell-based
T1 construct: expressed in transfected cells; host or cells: CHO

[2] = target: T2, recombinant human NMDAR GluN1 plus GluN2C (Homo sapiens, UniProt Q05586+Q14957); experiment: FLIPR calcium assay, gentamicin as PAM (Example 5 Part I), GluN2C cell line; format: cell-based; settings: 10 μM test item; dextromethadone in presence and absence of 10 μM gentamicin
T2 construct: expressed in transfected cells; host or cells: CHO
T2 sequence (Q14957 20-1233, other chains not shown): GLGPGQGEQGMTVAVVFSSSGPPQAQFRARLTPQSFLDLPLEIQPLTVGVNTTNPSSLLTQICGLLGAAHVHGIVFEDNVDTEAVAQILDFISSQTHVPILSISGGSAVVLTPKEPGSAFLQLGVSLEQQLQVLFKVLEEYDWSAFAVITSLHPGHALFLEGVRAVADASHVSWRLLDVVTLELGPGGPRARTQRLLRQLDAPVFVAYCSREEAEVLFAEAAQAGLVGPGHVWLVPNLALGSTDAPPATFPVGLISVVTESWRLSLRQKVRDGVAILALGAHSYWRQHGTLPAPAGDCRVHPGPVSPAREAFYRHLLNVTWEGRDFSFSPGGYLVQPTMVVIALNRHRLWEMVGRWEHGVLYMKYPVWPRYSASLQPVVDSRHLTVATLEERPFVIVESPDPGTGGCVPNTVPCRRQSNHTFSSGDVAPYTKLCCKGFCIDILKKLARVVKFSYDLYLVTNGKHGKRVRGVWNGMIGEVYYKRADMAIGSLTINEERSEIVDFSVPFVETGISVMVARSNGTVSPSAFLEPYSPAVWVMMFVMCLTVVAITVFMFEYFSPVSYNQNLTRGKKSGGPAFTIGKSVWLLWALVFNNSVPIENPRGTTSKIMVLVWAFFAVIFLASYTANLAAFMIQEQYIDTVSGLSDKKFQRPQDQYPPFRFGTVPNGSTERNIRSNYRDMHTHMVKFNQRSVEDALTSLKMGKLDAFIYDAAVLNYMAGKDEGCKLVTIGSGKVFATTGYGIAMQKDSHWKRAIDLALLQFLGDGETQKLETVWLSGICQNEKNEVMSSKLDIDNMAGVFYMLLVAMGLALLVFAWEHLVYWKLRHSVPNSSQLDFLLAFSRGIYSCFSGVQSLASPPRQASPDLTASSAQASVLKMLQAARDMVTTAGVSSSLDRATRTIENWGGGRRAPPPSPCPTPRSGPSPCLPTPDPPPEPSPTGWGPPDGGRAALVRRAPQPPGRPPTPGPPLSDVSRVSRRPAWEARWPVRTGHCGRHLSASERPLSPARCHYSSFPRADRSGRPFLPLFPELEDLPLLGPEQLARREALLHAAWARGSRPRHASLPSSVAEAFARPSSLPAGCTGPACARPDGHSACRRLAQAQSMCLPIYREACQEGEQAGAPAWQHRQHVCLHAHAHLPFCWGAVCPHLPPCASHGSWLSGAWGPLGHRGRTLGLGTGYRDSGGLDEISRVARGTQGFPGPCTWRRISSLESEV
Text: A FLIPR calcium assay was used to profile gentamicin using stable cell lines expressing diheteromeric recombinant human NMDARs, containing GluN1 plus one amongst GluN2A, GluN2B, GluN2C or GluN2D subunit.

[3] = target: T3, human NMDA receptor GluN1-GluN2A (Homo sapiens, UniProt Q05586+Q12879); experiment: FLIPR calcium assay, test item effect on L-glutamate CRC, GluN1-GluN2A-CHO; format: cell-based
T3 construct: expressed in transfected cells; host or cells: CHO
T3 sequence (Q12879 23-1464, other chains not shown): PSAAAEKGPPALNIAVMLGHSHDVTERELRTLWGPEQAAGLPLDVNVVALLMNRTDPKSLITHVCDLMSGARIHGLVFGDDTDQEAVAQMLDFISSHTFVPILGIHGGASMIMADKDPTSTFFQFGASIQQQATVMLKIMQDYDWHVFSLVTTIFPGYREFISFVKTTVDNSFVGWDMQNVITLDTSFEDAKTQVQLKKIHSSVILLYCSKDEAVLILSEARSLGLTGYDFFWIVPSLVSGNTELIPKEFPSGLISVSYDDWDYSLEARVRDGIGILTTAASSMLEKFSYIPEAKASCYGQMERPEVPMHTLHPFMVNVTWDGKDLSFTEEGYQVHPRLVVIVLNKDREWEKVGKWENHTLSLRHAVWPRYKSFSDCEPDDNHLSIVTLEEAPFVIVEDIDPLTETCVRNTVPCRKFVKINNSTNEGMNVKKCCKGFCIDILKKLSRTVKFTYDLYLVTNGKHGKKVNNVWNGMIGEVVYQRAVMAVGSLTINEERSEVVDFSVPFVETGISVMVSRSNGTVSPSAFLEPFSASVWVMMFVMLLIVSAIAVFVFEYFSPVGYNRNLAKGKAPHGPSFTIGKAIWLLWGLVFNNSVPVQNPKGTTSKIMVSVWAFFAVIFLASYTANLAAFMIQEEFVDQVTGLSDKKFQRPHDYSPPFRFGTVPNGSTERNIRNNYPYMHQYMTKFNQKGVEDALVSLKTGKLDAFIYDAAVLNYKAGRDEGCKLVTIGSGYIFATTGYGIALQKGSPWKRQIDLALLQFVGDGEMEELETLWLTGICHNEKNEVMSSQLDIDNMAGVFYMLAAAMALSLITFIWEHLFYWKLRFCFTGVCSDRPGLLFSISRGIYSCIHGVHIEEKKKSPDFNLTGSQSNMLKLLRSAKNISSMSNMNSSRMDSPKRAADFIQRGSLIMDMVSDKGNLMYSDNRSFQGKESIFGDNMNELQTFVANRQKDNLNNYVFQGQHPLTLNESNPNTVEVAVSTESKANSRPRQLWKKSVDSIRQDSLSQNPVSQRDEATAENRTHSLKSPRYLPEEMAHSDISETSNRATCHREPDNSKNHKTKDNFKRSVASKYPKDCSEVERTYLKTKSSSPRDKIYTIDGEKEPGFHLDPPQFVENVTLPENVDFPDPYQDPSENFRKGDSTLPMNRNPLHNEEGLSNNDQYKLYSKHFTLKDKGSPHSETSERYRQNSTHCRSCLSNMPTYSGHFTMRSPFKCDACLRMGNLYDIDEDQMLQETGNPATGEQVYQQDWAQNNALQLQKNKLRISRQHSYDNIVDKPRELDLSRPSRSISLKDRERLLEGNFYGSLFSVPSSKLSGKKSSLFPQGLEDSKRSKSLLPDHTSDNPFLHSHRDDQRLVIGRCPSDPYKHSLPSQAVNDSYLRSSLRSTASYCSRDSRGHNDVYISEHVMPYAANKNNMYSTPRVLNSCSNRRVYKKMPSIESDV

[4] = target: T4, human NMDA receptor GluN1-GluN2C (Homo sapiens, UniProt Q05586+Q14957); experiment: FLIPR calcium assay, quinolinic acid, gentamicin, dextromethadone (Example 5 Part II), GluN1-GluN2C-CHO; format: cell-based; settings: 10 μM glycine; for calcium response (mean±SEM): GluN2C, n=42
T4 construct: expressed in transfected cells; host or cells: CHO
T4 sequence (Q14957 20-1233, other chains not shown): as the sequence (Q14957 20-1233, other chains not shown) above

[5] = test system: healthy subjects; experiment: Phase 1 SAD and MAD studies, safety and tolerability
[6] = target: T4, human NMDA receptor GluN1-GluN2C; experiment: FLIPR calcium assay, test item effect on L-glutamate CRC, GluN1-GluN2C-CHO; format: cell-based
[7] = Phase 1 SAD and MAD studies, pharmacokinetics
[8] = target: T3, human NMDA receptor GluN1-GluN2A; experiment: FLIPR calcium assay, quinolinic acid, gentamicin, dextromethadone (Example 5 Part II), GluN1-GluN2A-CHO; format: cell-based; set-up: calcium response (mean±SEM): unit not given here; settings: 10 μM glycine; for calcium response (mean±SEM): GluN2A, n=42
In short: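 CHO lines expressing diheteromeric human GluN1/GluN2A–D, loaded 1 h with Fluo-4, tested by FLIPR for intracellular calcium with 10 μM glycine present. Quinolinic acid, gentamicin and test items were run as concentration-response curves, alone or combined. EC50 obtained from a four-parameter Hill fit.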

[9] = target: 5-HT2A receptor (Homo sapiens, UniProt P28223); settings: agonist; Rickli et al., 2018; cited from earlier work
Chain of 5-HT2A receptor (P28223 whole entry): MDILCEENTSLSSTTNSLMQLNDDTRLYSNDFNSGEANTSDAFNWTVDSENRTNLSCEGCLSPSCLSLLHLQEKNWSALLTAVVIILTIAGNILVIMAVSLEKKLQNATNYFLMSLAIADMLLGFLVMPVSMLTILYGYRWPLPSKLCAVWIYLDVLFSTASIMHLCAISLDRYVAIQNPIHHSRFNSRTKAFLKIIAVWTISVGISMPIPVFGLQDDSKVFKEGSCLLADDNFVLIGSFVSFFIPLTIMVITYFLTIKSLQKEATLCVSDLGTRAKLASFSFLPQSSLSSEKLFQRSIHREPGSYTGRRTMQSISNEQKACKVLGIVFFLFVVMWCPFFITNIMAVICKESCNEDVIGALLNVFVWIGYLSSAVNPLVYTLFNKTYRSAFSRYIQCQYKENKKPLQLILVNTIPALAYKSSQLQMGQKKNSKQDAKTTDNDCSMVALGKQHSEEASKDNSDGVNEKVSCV

[10] = target: T1, human NMDA receptor GluN1-GluN2B; experiment: FLIPR calcium assay, quinolinic acid, gentamicin, dextromethadone (Example 5 Part II), GluN1-GluN2B-CHO; format: cell-based; settings: 10 μM glycine; for calcium response (mean±SEM): GluN2B, n=42
[11] = operational analysis for allosteric modulators
[12] = 0.04 μM L-Glu + 100 μM QA + 10 μM DXT
[13] = 0.04 μM L-Glu + 1000 μM QA + 10 μM DXT
[14] = 0.2 μM L-Glu + 100 μM QA + 10 μM DXT
[15] = 0.2 μM L-Glu + 1000 μM QA + 10 μM DXT
[16] = 1000 μM QA + 10 μg/ml GENT + 10 μM DXT
[17] = Table 41: 0.04 μM L-Glu + 10 μM DXT
[18] = Table 43: 0.2 μM L-Glu + 10 μM DXT

T1 sequence (Q13224 27-1484, other chains not shown): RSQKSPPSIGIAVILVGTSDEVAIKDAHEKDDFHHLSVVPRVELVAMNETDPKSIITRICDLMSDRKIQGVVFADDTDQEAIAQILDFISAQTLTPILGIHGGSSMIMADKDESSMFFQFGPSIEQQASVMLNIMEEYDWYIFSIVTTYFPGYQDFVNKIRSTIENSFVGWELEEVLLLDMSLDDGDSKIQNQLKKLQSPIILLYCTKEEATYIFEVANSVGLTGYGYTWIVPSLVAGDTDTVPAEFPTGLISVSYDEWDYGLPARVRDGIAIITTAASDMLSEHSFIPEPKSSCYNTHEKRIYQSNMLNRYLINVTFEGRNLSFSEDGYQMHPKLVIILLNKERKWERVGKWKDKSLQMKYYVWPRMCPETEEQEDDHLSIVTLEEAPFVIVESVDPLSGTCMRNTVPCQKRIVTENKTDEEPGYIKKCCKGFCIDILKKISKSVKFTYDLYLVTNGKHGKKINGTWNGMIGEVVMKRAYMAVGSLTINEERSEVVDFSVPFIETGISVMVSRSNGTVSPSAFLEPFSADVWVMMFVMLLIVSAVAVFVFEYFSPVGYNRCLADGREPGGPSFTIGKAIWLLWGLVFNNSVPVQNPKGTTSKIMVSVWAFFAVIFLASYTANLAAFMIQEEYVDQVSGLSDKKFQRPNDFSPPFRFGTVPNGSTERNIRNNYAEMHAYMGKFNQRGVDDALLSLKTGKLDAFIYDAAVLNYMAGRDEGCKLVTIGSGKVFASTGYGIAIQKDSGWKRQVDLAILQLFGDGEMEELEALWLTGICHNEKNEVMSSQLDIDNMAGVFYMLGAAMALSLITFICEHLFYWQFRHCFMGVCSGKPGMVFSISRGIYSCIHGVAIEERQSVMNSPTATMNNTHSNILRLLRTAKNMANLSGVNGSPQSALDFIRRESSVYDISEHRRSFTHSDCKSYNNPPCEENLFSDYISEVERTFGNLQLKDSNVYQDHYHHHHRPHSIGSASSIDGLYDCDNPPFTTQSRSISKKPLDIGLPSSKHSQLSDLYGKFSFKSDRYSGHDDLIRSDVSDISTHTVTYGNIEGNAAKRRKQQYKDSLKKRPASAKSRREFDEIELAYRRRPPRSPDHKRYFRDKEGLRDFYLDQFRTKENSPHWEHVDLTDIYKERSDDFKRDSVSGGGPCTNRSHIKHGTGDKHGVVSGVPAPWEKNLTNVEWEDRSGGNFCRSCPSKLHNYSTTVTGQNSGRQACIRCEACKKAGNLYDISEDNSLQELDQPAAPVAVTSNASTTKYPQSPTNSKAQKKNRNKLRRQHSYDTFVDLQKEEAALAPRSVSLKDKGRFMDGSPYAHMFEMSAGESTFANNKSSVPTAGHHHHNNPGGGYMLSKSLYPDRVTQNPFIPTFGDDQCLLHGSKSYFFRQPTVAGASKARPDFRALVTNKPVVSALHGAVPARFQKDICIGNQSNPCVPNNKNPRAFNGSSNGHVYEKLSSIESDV

Structure (SMILES): CCC(=O)C(C[C@H](C)N(C)C)(c1ccccc1)c1ccccc1 [Dextromethadone, dextromethadone]
- α, estimated cooperativity term [1, 11]: 0.26
- L-glutamate CRC HillSlope ([1]; with test item 49 nM): 1.2
- L-glutamate CRC LogEC50 ([1]; with test item 49 nM): −7.0
- L-glutamate CRC HillSlope ([1]; with test item 195 nM): 1.2
- L-glutamate CRC LogEC50 ([1]; with test item 195 nM): −6.9
- L-glutamate CRC HillSlope ([1]; with test item 781 nM): 1.2
- L-glutamate CRC LogEC50 ([1]; with test item 781 nM): −6.9
- L-glutamate CRC HillSlope ([1]; with test item 3.1 μM): 1.1
- L-glutamate CRC LogEC50 ([1]; with test item 3.1 μM): −6.9
- L-glutamate CRC HillSlope ([1]; with test item 12.5 μM): 1.3
- L-glutamate CRC LogEC50 ([1]; with test item 12.5 μM): −6.7
- L-glutamate CRC HillSlope ([1]; with test item 50 μM): 1.1
- L-glutamate CRC LogEC50 ([1]; with test item 50 μM): −6.4
- calcium entry induced by 0.04 μM L-glutamate [2]: significantly reduced
- calcium entry induced by 0.2 μM L-glutamate [2]: significantly reduced
- calcium entry induced by 10 μM L-glutamate [2]: significantly reduced
- α, estimated cooperativity term [3, 11]: 0.22
- L-glutamate CRC HillSlope ([3]; with test item 49 nM): 1.0
- L-glutamate CRC LogEC50 ([3]; with test item 49 nM): −6.7
- L-glutamate CRC HillSlope ([3]; with test item 195 nM): 1.1
- L-glutamate CRC LogEC50 ([3]; with test item 195 nM): −6.6
- L-glutamate CRC HillSlope ([3]; with test item 781 nM): 1.1
- L-glutamate CRC LogEC50 ([3]; with test item 781 nM): −6.6
- L-glutamate CRC HillSlope ([3]; with test item 3.1 μM): 1.0
- L-glutamate CRC LogEC50 ([3]; with test item 3.1 μM): −6.6
- L-glutamate CRC HillSlope ([3]; with test item 12.5 μM): 1.0
- L-glutamate CRC LogEC50 ([3]; with test item 12.5 μM): −6.4
- L-glutamate CRC HillSlope ([3]; with test item 50 μM): 1.4
- L-glutamate CRC LogEC50 ([3]; with test item 50 μM): −6.4
- calcium response (mean±SEM) ([4]; 0.04 μM L-Glu + 10 μM DXT): 1.6 ± 0.4
- calcium response (mean±SEM) [4, 12]: −2.5 ± 0.7
- calcium response (mean±SEM) [4, 13]: −8.6 ± 1.5
- calcium response (mean±SEM) ([4]; 0.2 μM L-Glu + 10 μM DXT): 13 ± 0.7
- calcium response (mean±SEM) [4, 14]: 7.7 ± 0.6
- calcium response (mean±SEM) [4, 15]: −3.8 ± 0.9
- % effect on calcium entry, 100 QA + 10 DXT ([4]; 100 μM QA + 10 μM DXT): −3.3 ± 0.5%
- calcium response (mean±SEM) ([4]; 1000 μM QA + 10 μM DXT): −8.0 ± 0.4
- % effect on calcium entry, 1000 QA + 10 DXT ([4]; 1000 μM QA + 10 μM DXT): −8.0 ± 0.4%
- calcium response (mean±SEM) [4, 16]: −11 ± 0.9
- calcium response (mean±SEM) [4, 17]: 1.6 ± 0.4
- calcium response (mean±SEM) [4, 18]: 13 ± 0.7
- QTcF changes from base-line ([5]; SAD and MAD): none of the changes were considered clinically significant
- respiratory depression, dissociative and psychotomimetic effects, withdrawal signs and symptoms ([5]; SAD and MAD, abrupt discontinuation): no evidence
- tolerability ([5]; single doses up to 150 mg and daily doses up to 75 mg for 10 days): well tolerated
- α, estimated cooperativity term [6, 11]: 0.17
- L-glutamate CRC HillSlope ([6]; with test item 49 nM): 1.3
- L-glutamate CRC LogEC50 ([6]; with test item 49 nM): −6.8
- L-glutamate CRC HillSlope ([6]; with test item 195 nM): 1.4
- L-glutamate CRC LogEC50 ([6]; with test item 195 nM): −6.8
- L-glutamate CRC HillSlope ([6]; with test item 781 nM): 2.2
- L-glutamate CRC LogEC50 ([6]; with test item 781 nM): −6.8
- L-glutamate CRC HillSlope ([6]; with test item 3.1 μM): 1.4
- L-glutamate CRC LogEC50 ([6]; with test item 3.1 μM): −6.8
- L-glutamate CRC HillSlope ([6]; with test item 12.5 μM): 1.5
- L-glutamate CRC LogEC50 ([6]; with test item 12.5 μM): −6.7
- L-glutamate CRC HillSlope ([6]; with test item 50 μM): 1.7
- L-glutamate CRC LogEC50 ([6]; with test item 50 μM): −6.6
- conversion of dextromethadone to levomethadone in vivo ([7]; SAD and MAD subjects): No detectable conversion
- pharmacokinetic linearity ([7]; SAD and MAD, racially diversified subjects): linear pharmacokinetics with dose proportionality
- calcium response (mean±SEM) ([8]; 0.04 μM L-Glu + 10 μM DXT): 0.5 ± 0.2
- calcium response (mean±SEM) [8, 12]: 3.4 ± 0.2
- calcium response (mean±SEM) [8, 13]: 32 ± 0.7
- calcium response (mean±SEM) ([8]; 0.2 μM L-Glu + 10 μM DXT): 14 ± 0.4
- calcium response (mean±SEM) [8, 14]: 15 ± 0.5
- calcium response (mean±SEM) [8, 15]: 35 ± 1.0
- % effect on calcium entry, 100 QA + 10 DXT ([8]; 100 μM QA + 10 μM DXT): −0.2 ± 0.2%
- calcium response (mean±SEM) ([8]; 1000 μM QA + 10 μM DXT): 34 ± 0.6
- % effect on calcium entry, 1000 QA + 10 DXT ([8]; 1000 μM QA + 10 μM DXT): 34 ± 0.6%
- calcium response (mean±SEM) [8, 16]: 34 ± 0.6
- calcium response (mean±SEM) [8, 17]: 0.5 ± 0.2
- calcium response (mean±SEM) [8, 18]: 14 ± 0.4
- Ki [9]: 520 nM
- calcium response (mean±SEM) ([10]; 0.04 μM L-Glu + 10 μM DXT): 0.2 ± 0.4
- calcium response (mean±SEM) [10, 13]: 13 ± 1.0
- calcium response (mean±SEM) ([10]; 0.2 μM L-Glu + 10 μM DXT): 8.0 ± 0.5
- calcium response (mean±SEM) [10, 14]: 9.9 ± 0.8
- calcium response (mean±SEM) [10, 15]: 13 ± 1.0
- % effect on calcium entry, 100 QA + 10 DXT ([10]; 100 μM QA + 10 μM DXT): −1.0 ± 0.8%
- calcium response (mean±SEM) ([10]; 1000 μM QA + 10 μM DXT): 12 ± 0.7
- % effect on calcium entry, 1000 QA + 10 DXT ([10]; 1000 μM QA + 10 μM DXT): 12 ± 0.7%
- calcium response (mean±SEM) [10, 16]: 21 ± 0.9
- calcium response (mean±SEM) [10, 17]: 0.2 ± 0.4
- calcium response (mean±SEM) [10, 18]: 8.0 ± 0.5

Reference: US20230017786A1, “DEXTR[…] A DISEASE-MODIFYING TREATMENT FOR NEUROPSYCHIATRIC DISORDERS AND DISEASES” (priority 2020, published 2023)
